How the values were obtained:
[1] = molecular target: T1, A2B receptor (Homo sapiens, UniProt P29275); assay: A2bR antagonism IC50, cAMP TR-FRET in HEK-293 cells, high concentration of adenosine (30 μM); details: A2BR IC50 (nM) (@30 μM Adenosine), HEK-293 cells expressing A2B receptor; agonist adenosine 30 μM; 2% HSA; inhibition of cAMP;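 further: compounds preincubated 10 min with cells, then adenosine stimulation 30 min at room temperature in buffer with Rolipram 100 µM and EHNA 30 µM, TR-FRET read after 1 h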
T1 sequence (P29275 1-332): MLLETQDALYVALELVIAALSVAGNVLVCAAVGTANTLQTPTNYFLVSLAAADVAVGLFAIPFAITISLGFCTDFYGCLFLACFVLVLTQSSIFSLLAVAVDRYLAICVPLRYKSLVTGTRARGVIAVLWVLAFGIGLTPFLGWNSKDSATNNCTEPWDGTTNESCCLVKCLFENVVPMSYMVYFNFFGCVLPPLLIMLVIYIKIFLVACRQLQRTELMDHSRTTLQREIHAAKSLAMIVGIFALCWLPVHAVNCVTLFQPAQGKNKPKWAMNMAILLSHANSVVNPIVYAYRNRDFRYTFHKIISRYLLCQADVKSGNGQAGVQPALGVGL

[2] = molecular target: T2, A2A receptor (Homo sapiens, UniProt P29274); assay: A2aR antagonism IC50, cAMP TR-FRET in HEK-293 cells, high concentration of adenosine (30 μM); assay type: cell-based; details: HEK-293 cells expressing A2A receptor; agonist adenosine 30 μM; 2% HSA; inhibition of cAMP; read-out: A2AR IC50 (nM) (@30 μM Adenosine);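 further: compounds added 10 min before adenosine, then 30 min stimulation at room temperature in buffer with 100 µM rolipram and 30 µM EHNA, signal read 1 h after detection reagents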
T2 construct: host or cells: HEK-293
T2 sequence (P29274 whole entry): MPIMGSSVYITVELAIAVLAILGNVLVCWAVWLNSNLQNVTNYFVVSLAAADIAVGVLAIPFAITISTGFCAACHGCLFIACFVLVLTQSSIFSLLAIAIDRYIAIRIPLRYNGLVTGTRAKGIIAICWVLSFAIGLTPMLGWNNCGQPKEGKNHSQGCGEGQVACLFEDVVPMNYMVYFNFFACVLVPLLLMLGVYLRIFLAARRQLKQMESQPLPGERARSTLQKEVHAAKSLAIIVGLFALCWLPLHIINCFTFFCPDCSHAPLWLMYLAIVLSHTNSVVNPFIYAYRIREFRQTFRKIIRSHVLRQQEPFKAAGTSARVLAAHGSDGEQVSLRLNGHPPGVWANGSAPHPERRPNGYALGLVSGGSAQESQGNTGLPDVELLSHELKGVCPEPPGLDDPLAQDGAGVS

| IC50 [1] [nM] | IC50 [2] [nM] | Structure (SMILES) |
| --- | --- | --- |
| 1620 | 628 | CCc1c(C)nn2c(N)c(C#N)c(NCCc3ccc(F)c(CO)n3)nc12 [Example 91, 7-amino-3-ethyl-5-((2-(5-fluoro-6-(hydroxymethyl)315yridine-2-yl)ethyl)amino)-2-methylpyrazolo[1,5-a]pyrimidine-6-carbonitrile] |
| 5640 | 79 | COCCn1cccc(CCNc2nc3c(Cl)c(C)nn3c(N)c2C#N)c1=O [Example 92, 7-amino-3-chloro-5-((2-(1-(2-methoxyethyl)-2-oxo-1,2-dihydropyridin-3-yl)ethyl)amino)-2-methylpyrazolo[1,5-a]pyrimidine-6-carbonitrile] |
| 1230 | 50 | Cc1nn2c(N)c(C#N)c(NCCc3cccn(CCO)c3=O)nc2c1Cl [Example 93, 7-amino-3-chloro-5-((2-(1-(2-hydroxyethyl)-2-oxo-1,2-dihydropyridin-3-yl)ethyl)amino)-2-methylpyrazolo[1,5-a]pyrimidine-6-carbonitrile] |
| 10000 | 104 | Cc1nn2c(N)c(C#N)c(NCCc3ccn(C4(CO)CC4)n3)nc2c1C(F)(F)F [Example 94, 7-amino-5-((2-(1-(1-(hydroxymethyl)cyclopropyl)-1H-pyrazol-3-yl)ethyl)amino)-2-methyl-3-(trifluoromethyl) pyrazolo[1,5-a]pyrimidine-6-carbonitrile] |
| 1430 | 451 | CCc1c(C)nn2c(N)c(C#N)c(NCCc3cccc(CNCCO)n3)nc12 [Example 97, 7-amino-3-ethyl-5-((2-(6-(((2-hydroxyethyl)amino)methyl)pyridine-2-yl)ethyl)amino)-2-methylpyrazolo[1,5-a]pyrimidine-6-carbonitrile] |
| > 15000 | 100 | Cc1nn2c(N)c(C#N)c(NCCc3ccn(C4(CNCCO)CC4)n3)nc2c1Cl [Example 98, 7-amino-3-chloro-5-((2-(1-(1-(((2-hydroxyethyl)amino)methyl)cyclopropyl)-1H-pyrazol-3-yl)ethyl)amino)-2-methylpyrazolo[1,5-a]pyrimidine-6-carbonitrile] |
| 20000 | 69 | Cc1nn2c(N)c(C#N)c(NCCc3ccn(C4(CNC(=O)CCO)CC4)n3)nc2c1Cl [Example 99, N-((1-(3-(2-((7-amino-3-chloro-6-cyano-2-methylpyrazolo[1,5-a]pyrimidin-5-yl)amino)ethyl)-1H-pyrazol-1-yl)cyclopropyl)methyl)-3-hydroxypropanamide] |
| > 15000 | 2100 | Cc1nn2c(N)c(C#N)c(NCCc3ccn(C4(CO)CC4)n3)nc2c1C1CC1 [Example 101, 7-amino-3-cyclopropyl-5-((2-(1-(1-(hydroxymethyl)cyclopropyl)-1H-pyrazol-3-yl)ethyl)amino)-2-methylpyrazolo[1,5-a]pyrimidine-6-carbonitrile] |
| 8300 | 804 | CCc1c(C(F)F)nn2c(N)c(C#N)c(NCCc3ccn(C4CCC4CO)n3)nc12 (stereo not drawn) [Example 102, 7-amino-2-(difluoromethyl)-3-ethyl-5-((2-(1-(2-(hydroxymethyl)cyclobutyl)-1H-pyrazol-3-yl)ethyl)amino) pyrazolo[1,5-a]pyrimidine-6-carbonitrile] |
| 4390 | 75 | CCc1c(C)nn2c(N)c(C#N)c(NCCc3ccn(C4(CNCCO)CC4)n3)nc12 [Example 106, 7-amino-3-ethyl-5-((2-(1-(1-(((2-hydroxyethyl)amino)methyl)cyclopropyl)-1H-pyrazol-3-yl)ethyl)amino)-2-methylpyrazolo[1,5-a]pyrimidine-6-carbonitrile] |
| 1550 | 224 | CCc1c(C)nn2c(N)c(C#N)c(NCCc3cccn(CCOC)c3=O)nc12 [Example 107, 7-amino-3-ethyl-5-((2-(1-(2-methoxyethyl)-2-oxo-1,2-dihydropyridin-3-yl)ethyl)amino)-2-methylpyrazolo[1,5-a] pyrimidine-6-carbonitrile] |
| 1070 | 392 | CCc1c(C)nn2c(N)c(C#N)c(NCCc3cccn(CCO)c3=O)nc12 [Example 108, 7-amino-3-ethyl-5-((2-(1-(2-hydroxyethyl)-2-oxo-1,2-dihydropyridin-3-yl)ethyl)amino)-2-methylpyrazolo[1,5-a]pyrimidine-6-carbonitrile] |
| 723 | 402 | CCc1c(C)nn2c(N)c(C#N)c(NCCc3ccn(C4CCC4CN)n3)nc12 (stereo not drawn) [Example 109, 7-amino-5-((2-(1-(2-(aminomethyl)cyclobutyl)-1H-pyrazol-3-yl)ethyl)amino)-3-ethyl-2-methylpyrazolo[1,5-a]pyrimidine-6-carbonitrile] |
| > 15000 | > 15000 | CCc1c(C)nn2c(N)c(C#N)c(NCCc3ccnn3CCCO)nc12 [Example 110, 7-amino-3-ethyl-5-((2-(1-(3-hydroxypropyl)-1H-pyrazol-5-yl)ethyl)amino)-2-methylpyrazolo[1,5-a]pyrimidine-6-carbonitrile] |
| 2380 | 666 | CCc1c(C)nn2c(N)c(C#N)c(NCCc3ccn(CCCO)n3)nc12 [Example 111, 7-amino-3-ethyl-5-((2-(1-(3-hydroxypropyl)-1H-pyrazol-3-yl)ethyl)amino)-2-methylpyrazolo[1,5-a]pyrimidine-6-carbonitrile] |
| 10800 | 84 | Cc1nn2c(N)c(C#N)c(NCCc3ccn(C4(CCO)CC4)n3)nc2c1Cl [Example 112, 7-amino-3-chloro-5-((2-(1-(1-(2-hydroxyethyl)cyclopropyl)-1H-pyrazol-3-yl)ethyl)amino)-2-methylpyrazolo[1,5-a] pyrimidine-6-carbonitrile] |
| 1050 | 187 | CCc1c(C)nn2c(N)c(C#N)c(NCCc3cccn(CCCO)c3=O)nc12 [Example 113, 7-amino-3-ethyl-5-((2-(1-(3-hydroxypropyl)-2-oxo-1,2-dihydropyridin-3-yl)ethyl)amino)-2-methylpyrazolo[1,5-a]pyrimidine-6-carbonitrile] |
| 4380 | 96 | Cc1nn2c(N)c(C#N)c(NCCc3ccn(C4CCCC4CO)n3)nc2c1Cl (stereo not drawn) [Example 114, 7-amino-3-chloro-5-((2-(1-(2-(hydroxymethyl)cyclopentyl)-1H-pyrazol-3-yl)ethyl)amino)-2-methylpyrazolo[1,5-a]pyrimidine-6-carbonitrile] |
| 2100 | 427 | Cc1nn2c(N)c(C#N)c(NCCc3ccn(C4CCC4CO)n3)nc2c1CC1CC1 (stereo not drawn) [Example 116, 7-amino-3-(cyclopropylmethyl)-5-((2-(1-(2-(hydroxymethyl)cyclobutyl)-1H-pyrazol-3-yl)ethyl)amino)-2-methylpyrazolo[1,5-a]pyrimidine-6-carbonitrile] |
| 3060 | 66 | Cc1nn2c(N)c(C#N)c(NCCc3ccn(C4CCC4CNCCO)n3)nc2c1Cl (stereo not drawn) [Example 117, 7-amino-3-chloro-5-((2-(1-(2-(((2-hydroxyethyl)amino)methyl)cyclobutyl)-1H-pyrazol-3-yl)ethyl)amino)-2-methylpyrazolo[1,5-a]pyrimidine-6-carbonitrile] |
| 7850 | 78 | Cc1nn2c(N)c(C#N)c(NCCc3ccn(C4CCCC4CN)n3)nc2c1Cl (stereo not drawn) [Example 118, 7-amino-5-((2-(1-(2-(aminomethyl)cyclopentyl)-1H-pyrazol-3-yl)ethyl)amino)-3-chloro-2-methylpyrazolo[1,5-a] pyrimidine-6-carbonitrile] |
| 3410 | 260 | Cc1cccc(CCNc2nc3c(Cl)c(C)nn3c(N)c2C#N)n1 [Example 119, 7-amino-3-chloro-2-methyl-5-((2-(6-methylpyridin-2-yl)ethyl)amino) pyrazolo[1,5-a]pyrimidine-6-carbonitrile] |
| 8630 | 529 | CCc1cccc(CCNc2nc3c(Cl)c(C)nn3c(N)c2C#N)n1 [Example 120, 7-amino-3-chloro-5-((2-(6-ethylpyridin-2-yl)ethyl)amino)-2-methylpyrazolo[1,5-a]pyrimidine-6-carbonitrile] |
| 1580 | 405 | CCc1c(C)nn2c(N)c(C#N)c(NCCc3ccn(C4CC(CO)C4)n3)nc12 (stereo not drawn) [Example 123, 7-amino-3-ethyl-5-((2-(1-(3-(hydroxymethyl)cyclobutyl)-1H-pyrazol-3-yl)ethyl)amino)-2-methylpyrazolo[1,5-a]pyrimidine-6-carbonitrile] |
| 2220 | 126 | CCc1c(C)nn2c(N)c(C#N)c(NCCc3ccn(C4(CCO)CC4)n3)nc12 [Example 124, 7-amino-3-ethyl-5-((2-(1-(1-(2-hydroxyethyl)cyclopropyl)-1H-pyrazol-3-yl)ethyl)amino)-2-methylpyrazolo[1,5-a] pyrimidine-6-carbonitrile] |
| > 15000 | 767 | Cc1nn2c(N)c(C#N)c(NCCc3cccn(CCN)c3=O)nc2c1Cl [Example 125, 7-amino-5-((2-(1-(2-aminoethyl)-2-oxo-1,2-dihydropyridin-3-yl)ethyl)amino)-3-chloro-2-methylpyrazolo[1,5-a] pyrimidine-6-carbonitrile] |
| 3550 | 1890 | CCc1c(C)nn2c(N)c(C#N)c(NCCc3cccn(CCN)c3=O)nc12 [Example 126, 7-amino-5-((2-(1-(2-aminoethyl)-2-oxo-1,2-dihydropyridin-3-yl)ethyl)amino)-3-ethyl-2-methylpyrazolo[1,5-a] pyrimidine-6-carbonitrile] |

Source: patent publication US12577247B2 (BUGWORKS RESEARCH, INC., priority 2021, dated 2026)
